Like-named read-outs stand apart in the source and are kept apart here.
What was measured:
SK-OV-3 cells [1] = conditions: Table 2, parental line; cited from earlier work
HeLa cells [2] = conditions: Table 3, parental line; cited from earlier work
[3] = test system: HeLa WTβ-III cells (β-III tubulin expressing); conditions: cited from earlier work
[4] = test system: SK-OV-3 MDR-1-6/6 cells (P-gp expressing); conditions: cited from earlier work
MDA-MB-435 cells = experiment: Inhibition of cell proliferation, MDA-MB-435 (Section A); format: cell-based, human; conditions: Table 4; read-out: IC50 ± SD in MDA-MB-435 Cells
[5] = test system: microtubules in A-10 cells; experiment: Microtubule depolymerization in A-10 cells (Section A); format: cell-based; conditions: Table 4, unit of column head (CA-4 row)
[6] = test system: HeLa WTβ-III cells (β-III tubulin expressing); experiment: Effect of β-III tubulin on drug sensitivity, HeLa WT β-III (Section A); format: cell-based; conditions: for Rr: Table 6, relative resistance HeLa WTβ-III vs HeLa
OVCAR-8 cells = experiment: Antiproliferative effect, parental OVCAR-8, SRB assay (Section E); format: cell-based, human
Wild type HeLa cells = experiment: Antiproliferative effect, wild type HeLa, SRB assay (Section E); format: cell-based, human; conditions: read-out: IC50 ± SD Wild type HeLa
[7] = test system: βIII Overexpressing HeLa cells; experiment: Antiproliferative effect, βIII overexpressing HeLa, SRB assay (Section E); format: cell-based, human; conditions: for Rr: IC50 of β-III overexpressing HeLa divided by IC50 of parental HeLa; for IC50: SRB assay, read-out: IC50 ± SD βIII Overexpressing HeLa
[8] = test system: NCl/ADR-RES cells (Pgp overexpressing); experiment: Antiproliferative effect, Pgp overexpressing NCI/ADR-RES, SRB assay (Section E); conditions: for Rr: IC50 of Pgp overexpressing line divided by IC50 of parental OVCAR-8; for IC50: read-out: IC50 ± SD Pgp Overexpressing NCl/ADR-RES
SK-OV-3 cells [9] = experiment: Drug sensitivity in parental SK-OV-3 cells (Section A); format: cell-based; conditions: Homo sapiens, Table 5, parental line
HeLa cells [10] = experiment: Drug sensitivity in HeLa cells (Section A); format: cell-based; conditions: Homo sapiens, Table 6, parental line, read-out: IC50 ± SD in HeLa
[11] = test system: SK-OV-3 MDR-1-6/6 cells (P-gp expressing); conditions: Table 5, relative resistance SK-OV-3 MDR-1-6/6 vs SK-OV-3
recombinant pjDHFR = recombinant pjDHFR (Pneumocystis jirovecii (Human pneumocystis pneumonia agent), UniProt Q9UUP5); experiment: Inhibition of recombinant pjDHFR; format: biochemical; conditions: 37° C., 18 μM dihydrofolic acid

COc1ccc(/C=C\c2cc(OC)c(OC)c(OC)c2)cc1OP(=O)(O)O [CA4P, combretastatin A-4 phosphate]
IC50 (SK-OV-3 cells [1]): 4.5 ± 0.2 nM | IC50 (HeLa cells [2]): 4.7 ± 0.2 nM | Rr ([3]; Table 3, relative resistance WT β-III vs HeLa): 1.2 | IC50 ([3]; Table 3, β-III tubulin expressing line, read-out: WT β-III IC50): 5.7 ± 0.4 nM | Rr ([4]; Table 2, relative resistance SK-OV-3 MDR-1-6/6 vs SK-OV-3): 1.5 | IC50 ([4]; read-out: SK-OV-3 MDR-1-6/6 IC50, Table 2, P-gp expressing line): 6.6 ± 1.3 nM

COc1ccc(/C=C\c2cc(OC)c(OC)c(OC)c2)cc1O [CA-4, combretastatin A-4]
IC50 (MDA-MB-435 cells): 4.4 ± 0.46 nM | EC50 [5]: 9.8 nM | Rr [6]: 1 | IC50 (OVCAR-8 cells; read-out: IC50 ± SD Parental OVCAR-8): 6 ± 0.7 nM | IC50 (Wild type HeLa cells): 1.8 ± 0.4 nM | Rr [7]: 1.38 | IC50 [7]: 2.5 ± 0.7 nM | Rr [8]: 1.5 | IC50 ([8]; SRB assay): 9 ± 2 nM

CC(=O)O[C@H]1C(=O)[C@@]2(C)[C@H]([C@H](OC(=O)c3ccccc3)[C@]3(O)C[C@H](OC(=O)[C@H](O)[C@@H](NC(=O)c4ccccc4)c4ccccc4)C(C)=C1C3(C)C)[C@]1(OC(C)=O)CO[C@@H]1C[C@@H]2O [Paclitaxel]
IC50 (SK-OV-3 cells [9]): 5 ± 0.6 nM | IC50 (HeLa cells [10]): 2.8 ± 0.36 nM | IC50 ([6]; Homo sapiens, HeLa, Table 6, β-III tubulin expressing line, read-out: IC50 ± SD in HeLa WTβ-III): 24 ± 3 nM | Rr [6]: 8.6 | IC50 (OVCAR-8 cells; Homo sapiens, OVCAR-8, read-out: IC50 ± SD Parental OVCAR-8): 10 nM | IC50 (Wild type HeLa cells; Homo sapiens, HeLa): 5.3 ± 2 nM | IC50 ([7]; Homo sapiens, HeLa): 16 ± 1 nM | Rr [7]: 3.01 | Rr [11]: 240 | IC50 ([8]; Homo sapiens, NCI/ADR-RES): 5000 nM | Rr [8]: 500

COc1cc(NCc2ccc3nc(N)nc(N)c3c2C)cc(OC)c1OC [TMQ, Trimetrexate]
IC50 (recombinant pjDHFR): 2.1 nM

Source: patent US11001595B2, “Pyrimidine compounds and pyrimido indole compounds and methods of use” (Duquesne University of the Holy Spirit, priority 2014, dated 2021)
